According to patent US20160324154A1, “Herbicidal mixtures comprising imazethapyr, imazamox and fomesafen, sulfentrazone or bentazone” (BASF AGROCHEMICAL PRODUCTS B.V., priority 2014, published 2016):

Key:
Format in all cases: in vivo
Conyza canadensis = assay: Post emergence treatment, herbicidal activity against ERICA
Description: (§1) Synergism can be described as an interaction where the combined effect of two or more compounds is greater than the sum of the individual effects of each of the compounds. […] However, the weed control afforded by the compounds, mixtures or compositions is not limited to these species.The analysis of synergism or antagonism between the mixtures or compositions was determined using Colby's equation. Analogously, the Colby's equation can be used to determine synergism of 3-way and higher mixtures: [table] Post Emergence Treatment by the Mixture of (Imazamox+Imazethapyr)+Bentazon Post Emergence Treatment by the Mixture of (Imazamox+Imazethapyr)+Fomesafen

Phalaris canariensis = assay: Post emergence treatment, herbicidal activity against PHACA; parameters: scale not given here
Description: as §1, with “(Imazamox+Imazethapyr)+Fomesafen Post Emergence Treatment by the Mixture of (Imazamox+Imazethapyr)+Sulfentrazone” for “(Imazamox+Imazethapyr)+Fomesafen”

Sesbania exaltata = assay: Post emergence treatment, herbicidal activity against SEBEX; parameters: scale not given here
Description: as §1, with “(Imazamox+Imazethapyr)+Fomesafen Post Emergence Treatment by the Mixture of (Imazamox+Imazethapyr)+Sulfentrazone” for “(Imazamox+Imazethapyr)+Fomesafen”

Geranium dissectum = assay: Post emergence treatment, herbicidal activity against GERDI; parameters: scale not given here
Description: as §1, with “(Imazamox+Imazethapyr)+Fomesafen Post Emergence Treatment by the Mixture of (Imazamox+Imazethapyr)+Sulfentrazone” for “(Imazamox+Imazethapyr)+Fomesafen”

Ambrosia artemisiifolia = assay: Post emergence treatment, herbicidal activity against AMBEL
Description: as §1

Polygonum persicaria = assay: Post emergence treatment, herbicidal activity against POLPE
Description: as §1, with “(Imazamox+Imazethapyr)+Fomesafen” for “(Imazamox+Imazethapyr)+Bentazon”, “(Imazamox+Imazethapyr)+Sulfentrazone” for “(Imazamox+Imazethapyr)+Fomesafen”

Leptochloa fusca = assay: Post emergence treatment, herbicidal activity against LEFFA
Description: as §1, with “(Imazamox+Imazethapyr)+Fomesafen Post Emergence Treatment by the Mixture of (Imazamox+Imazethapyr)+Sulfentrazone” for “(Imazamox+Imazethapyr)+Fomesafen”

Convolvulus arvensis = assay: Post emergence treatment, herbicidal activity against CONAR; conditions: Example 2, post emergence; g ai/ha: imazethapyr 15, imazamox 15, fomesafen 6, mixture (15 + 15) + 6
Description: as §1, with “of” for “of (Imazamox+Imazethapyr)+Bentazon Post Emergence Treatment by the Mixture of”

Setaria faberi = assay: Post emergence treatment, herbicidal activity against SETFA
Description: as §1, with “(Imazamox+Imazethapyr)+Sulfentrazone” for “(Imazamox+Imazethapyr)+Fomesafen”

Brachiaria decumbens = assay: Post emergence treatment, herbicidal activity against BRADC; conditions: Example 3, post emergence; g ai/ha: imazethapyr 15, imazamox 15, sulfentrazone 10, mixture (15 + 15) + 10
Description: as §1, with “(Imazamox+Imazethapyr)+Sulfentrazone” for “(Imazamox+Imazethapyr)+Bentazon Post Emergence Treatment by the Mixture of (Imazamox+Imazethapyr)+Fomesafen”

Abutilon theophrasti = assay: Post emergence treatment, herbicidal activity against ABUTH; conditions: Example 1, post emergence; g ai/ha: imazethapyr 15, imazamox 15, bentazon 25, mixture (15 + 15) + 25
Description: as §1, with “(Imazamox+Imazethapyr)+Bentazon” for “(Imazamox+Imazethapyr)+Bentazon Post Emergence Treatment by the Mixture of (Imazamox+Imazethapyr)+Fomesafen”

Panicum miliaceum = assay: Post emergence treatment, herbicidal activity against PANMI; conditions: Example 3, post emergence; g ai/ha: imazethapyr 15, imazamox 15, sulfentrazone 6, mixture (15 + 15) + 6
Description: as §1, with “(Imazamox+Imazethapyr)+Sulfentrazone” for “(Imazamox+Imazethapyr)+Bentazon Post Emergence Treatment by the Mixture of (Imazamox+Imazethapyr)+Fomesafen”

Digitaria sanguinalis = assay: Post emergence treatment, herbicidal activity against DIGSA; conditions: Example 1, post emergence; g ai/ha: imazethapyr 15, imazamox 15, bentazon 50, mixture (15 + 15) + 50
Description: as §1, with “(Imazamox+Imazethapyr)+Bentazon” for “(Imazamox+Imazethapyr)+Bentazon Post Emergence Treatment by the Mixture of (Imazamox+Imazethapyr)+Fomesafen”

Echinochloa crus-galli = assay: Post emergence treatment, herbicidal activity against ECHCG; conditions: Example 1, post emergence; g ai/ha: imazethapyr 15, imazamox 15, bentazon 50, mixture (15 + 15) + 50
Description: as §1, with “(Imazamox+Imazethapyr)+Bentazon” for “(Imazamox+Imazethapyr)+Bentazon Post Emergence Treatment by the Mixture of (Imazamox+Imazethapyr)+Fomesafen”

[1] = Example 2, post emergence, g ai/ha: imazethapyr 15, imazamox 15, fomesafen 10, mixture (15 + 15) + 10
[2] = Example 2, post emergence, g ai/ha: imazethapyr 15, imazamox 15, fomesafen 6, mixture (15 + 15) + 6
[3] = Example 1, post emergence, g ai/ha: imazethapyr 15, imazamox 15, bentazon 50, mixture (15 + 15) + 50
[4] = Example 3, post emergence, g ai/ha: imazethapyr 15, imazamox 15, sulfentrazone 6, mixture (15 + 15) + 6
[5] = Example 1, post emergence, g ai/ha: imazethapyr 15, imazamox 15, bentazon 25, mixture (15 + 15) + 25
[6] = Example 3, post emergence, g ai/ha: imazethapyr 15, imazamox 15, sulfentrazone 10, mixture (15 + 15) + 10

SMILES | Herbicidal activity against ERICA Found (Conyza canadensis; [1]) | Herbicidal activity against PHACA Found (Phalaris canariensis; [2]) | Herbicidal activity against SEBEX Found (Sesbania exaltata; [1]) | Herbicidal activity against GERDI Found (Geranium dissectum; [2]) | Herbicidal activity against GERDI Found (Geranium dissectum; [1]) | Herbicidal activity against AMBEL Found (Ambrosia artemisiifolia; [1]) | Herbicidal activity against POLPE Found (Polygonum persicaria; [2]) | Herbicidal activity against LEFFA Found (Leptochloa fusca; [2]) | Herbicidal activity against CONAR Found (Convolvulus arvensis) | Herbicidal activity against ERICA Found (Conyza canadensis; [3]) | Herbicidal activity against SETFA Found (Setaria faberi; [3]) | Herbicidal activity against SETFA Found (Setaria faberi; [4]) | Herbicidal activity against PHACA Found (Phalaris canariensis; [5]) | Herbicidal activity against PHACA Found (Phalaris canariensis; [4]) | Herbicidal activity against SEBEX Found (Sesbania exaltata; [3]) | Herbicidal activity against SEBEX Found (Sesbania exaltata; [6]) | Herbicidal activity against BRADC Found (Brachiaria decumbens) | Herbicidal activity against ABUTH Found (Abutilon theophrasti) | Herbicidal activity against PANMI Found (Panicum miliaceum) | Herbicidal activity against DIGSA Found (Digitaria sanguinalis) | other results
CS(=O)(=O)NC(=O)c1cc(Oc2ccc(C(F)(F)F)cc2Cl)ccc1[N+](=O)[O-] [Fomesafen, 5-(2-chloro-α,α,α-trifluoro-p-tolyloxy)-N-mesyl-2-nitrobenzamide] | 30 | 0 | 80 | 0 | 70 | 65 | 20 | 0 | 0 | – | – | – | – | – | – | – | – | – | – | – | –
CCc1cnc(C2=NC(C)(C(C)C)C(=O)N2)c(C(=O)O)c1 (racemic) [Imazethapyr, 5-ethyl-2-[(RS)-4-isopropyl-4-methyl-5-oxo-2-imidazolin-2-yl]nicotinic acid] | 55 | 30 | 0 | 65 | 65 | 65 | 0 | 45 | 65 | 55 | 90 | 95 | 30 | 30 | 0 | 0 | 10 | 50 | 70 | 80 | Herbicidal activity against GERDI Found (Geranium dissectum; [5]): 65; Herbicidal activity against GERDI Found (Geranium dissectum; [4]): 65; Herbicidal activity against AMBEL Found (Ambrosia artemisiifolia; [5]): 98; Herbicidal activity against POLPE Found (Polygonum persicaria; [6]): 75; Herbicidal activity against ECHCG Found (Echinochloa crus-galli): 80; Herbicidal activity against LEFFA Found (Leptochloa fusca; [5]): 45; Herbicidal activity against LEFFA Found (Leptochloa fusca; [4]): 45
COCc1cnc(C2=NC(C)(C(C)C)C(=O)N2)c(C(=O)O)c1 (racemic) [Imazamox, 2-[(RS)-4-isopropyl-4-methyl-5-oxo-2-imidazolin-2-yl]-5-methoxymethylnicotinic acid] | 60 | 65 | 45 | 80 | 95 | 70 | 95 | 85 | 75 | 60 | 98 | 98 | 65 | 65 | 45 | 45 | 35 | 95 | 98 | 98 | Herbicidal activity against GERDI Found (Geranium dissectum; [5]): 80; Herbicidal activity against GERDI Found (Geranium dissectum; [4]): 80; Herbicidal activity against AMBEL Found (Ambrosia artemisiifolia; [5]): 98; Herbicidal activity against POLPE Found (Polygonum persicaria; [6]): 95; Herbicidal activity against ECHCG Found (Echinochloa crus-galli): 98; Herbicidal activity against LEFFA Found (Leptochloa fusca; [5]): 85; Herbicidal activity against LEFFA Found (Leptochloa fusca; [4]): 85
Cc1nn(-c2cc(NS(C)(=O)=O)c(Cl)cc2Cl)c(=O)n1C(F)F [Sulfentrazone, 2′,4′-dichloro-5′-(4-difluoromethyl-4,5-dihydro-3-methyl-5-oxo-1H-1,2,4-triazol-1-yl)methanesulfonanilide] | – | – | – | – | – | – | – | – | – | – | – | 0 | – | 0 | – | 80 | 30 | – | 0 | – | Herbicidal activity against GERDI Found (Geranium dissectum; [4]): 0; Herbicidal activity against POLPE Found (Polygonum persicaria; [6]): 80; Herbicidal activity against LEFFA Found (Leptochloa fusca; [4]): 0
CC(C)N1C(=O)c2ccccc2NS1(=O)=O [Bentazon, 3-isopropyl-1H-2,1,3-benzothiadiazin-4(3H)-one 2,2-dioxide] | – | – | – | – | – | – | – | – | – | 40 | 10 | – | 0 | – | 40 | – | – | 0 | – | 40 | Herbicidal activity against GERDI Found (Geranium dissectum; [5]): 0; Herbicidal activity against AMBEL Found (Ambrosia artemisiifolia; [5]): 0; Herbicidal activity against ECHCG Found (Echinochloa crus-galli): 35; Herbicidal activity against LEFFA Found (Leptochloa fusca; [5]): 0
